Source: ChEMBL document CHEMBL5143601, “Rationalizing the binding and α subtype selectivity of synthesized imidazodiazepines and benzodiazepines at GABAA receptors by using molecular docking studies” (Bioorg Med Chem Lett, 2022)

Experiments:
[1] = target: T1, GABA A receptor alpha-2/beta-2/gamma-2 (Homo sapiens, UniProt P18507+P47869+P47870); assay: Displacement of [3H]flunitrazepam from human recombinant alpha2beta2gamma2 GABAA receptor expressed in HEK cell membrane by competitive radioligand binding assay; format: cell membranes
T1 sequence (P47870 whole entry): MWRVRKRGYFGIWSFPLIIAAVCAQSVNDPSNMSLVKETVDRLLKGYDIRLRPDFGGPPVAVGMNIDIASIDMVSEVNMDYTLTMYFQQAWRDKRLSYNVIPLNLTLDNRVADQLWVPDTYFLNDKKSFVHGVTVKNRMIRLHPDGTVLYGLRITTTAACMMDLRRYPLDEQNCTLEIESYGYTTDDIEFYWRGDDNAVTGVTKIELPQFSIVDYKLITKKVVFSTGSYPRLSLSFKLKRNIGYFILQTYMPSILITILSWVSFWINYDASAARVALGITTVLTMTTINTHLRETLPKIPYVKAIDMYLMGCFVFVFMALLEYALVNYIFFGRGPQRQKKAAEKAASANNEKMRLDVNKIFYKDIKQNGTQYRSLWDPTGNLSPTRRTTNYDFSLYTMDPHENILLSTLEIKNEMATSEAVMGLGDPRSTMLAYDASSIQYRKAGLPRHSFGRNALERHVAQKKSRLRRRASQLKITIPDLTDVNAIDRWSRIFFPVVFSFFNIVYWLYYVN
T1 sequence (P18507 whole entry): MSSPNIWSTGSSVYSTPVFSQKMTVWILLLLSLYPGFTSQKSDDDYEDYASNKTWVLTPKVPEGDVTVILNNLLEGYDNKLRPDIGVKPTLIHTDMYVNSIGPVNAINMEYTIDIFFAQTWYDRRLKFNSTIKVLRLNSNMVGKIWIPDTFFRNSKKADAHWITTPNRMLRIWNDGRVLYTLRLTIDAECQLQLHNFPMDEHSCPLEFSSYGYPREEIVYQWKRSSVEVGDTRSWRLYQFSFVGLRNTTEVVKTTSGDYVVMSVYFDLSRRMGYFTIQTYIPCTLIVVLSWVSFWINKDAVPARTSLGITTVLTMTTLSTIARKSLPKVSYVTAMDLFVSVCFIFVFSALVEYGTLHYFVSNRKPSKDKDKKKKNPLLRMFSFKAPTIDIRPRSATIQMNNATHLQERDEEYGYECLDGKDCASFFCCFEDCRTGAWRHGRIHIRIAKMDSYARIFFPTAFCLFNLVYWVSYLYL
T1 sequence (P47869 whole entry): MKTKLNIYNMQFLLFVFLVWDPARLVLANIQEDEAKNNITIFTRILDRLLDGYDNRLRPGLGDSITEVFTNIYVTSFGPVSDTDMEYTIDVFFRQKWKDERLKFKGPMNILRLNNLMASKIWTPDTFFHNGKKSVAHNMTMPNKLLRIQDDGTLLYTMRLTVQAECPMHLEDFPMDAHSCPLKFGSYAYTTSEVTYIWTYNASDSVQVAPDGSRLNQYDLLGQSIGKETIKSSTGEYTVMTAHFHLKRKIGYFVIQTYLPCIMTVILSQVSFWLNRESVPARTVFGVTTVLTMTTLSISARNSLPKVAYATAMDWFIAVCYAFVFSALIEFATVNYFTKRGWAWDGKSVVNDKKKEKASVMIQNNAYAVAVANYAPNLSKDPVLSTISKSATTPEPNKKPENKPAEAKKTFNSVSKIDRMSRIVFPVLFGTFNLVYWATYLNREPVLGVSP

[2] = target: T2, Gamma-aminobutyric acid receptor subunit alpha-5/beta-2/gamma-2 (Homo sapiens, UniProt P18507+P31644+P47870); assay: Displacement of [3H]flunitrazepam from human recombinant alpha5beta2gamma2 GABAA receptor expressed in HEK cell membrane by competitive radioligand binding assay; format: cell membranes
T2 sequence (P47870 whole entry): T1 sequence (P47870 whole entry)
T2 sequence (P18507 whole entry): T1 sequence (P18507 whole entry)
T2 sequence (P31644 whole entry): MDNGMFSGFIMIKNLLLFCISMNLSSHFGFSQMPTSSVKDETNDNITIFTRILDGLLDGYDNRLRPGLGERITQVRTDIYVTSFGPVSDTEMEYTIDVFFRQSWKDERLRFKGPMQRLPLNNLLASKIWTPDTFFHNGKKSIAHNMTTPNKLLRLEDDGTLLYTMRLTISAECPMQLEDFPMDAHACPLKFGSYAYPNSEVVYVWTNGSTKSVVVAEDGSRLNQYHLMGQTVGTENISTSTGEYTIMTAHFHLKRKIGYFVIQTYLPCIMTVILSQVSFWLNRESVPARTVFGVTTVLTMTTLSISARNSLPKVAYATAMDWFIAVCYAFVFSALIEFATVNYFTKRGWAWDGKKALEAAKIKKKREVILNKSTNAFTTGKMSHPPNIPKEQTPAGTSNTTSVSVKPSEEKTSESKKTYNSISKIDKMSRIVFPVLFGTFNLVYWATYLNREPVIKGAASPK

[3] = target: T3, GABA A receptor alpha-3/beta-2/gamma-2 (Homo sapiens, UniProt P18507+P34903+P47870); assay: Displacement of [3H]flunitrazepam from human recombinant alpha3beta2gamma2 GABAA receptor expressed in HEK cell membrane by competitive radioligand binding assay; format: cell membranes
T3 sequence (P47870 whole entry): T1 sequence (P47870 whole entry)
T3 sequence (P18507 whole entry): T1 sequence (P18507 whole entry)
T3 sequence (P34903 whole entry): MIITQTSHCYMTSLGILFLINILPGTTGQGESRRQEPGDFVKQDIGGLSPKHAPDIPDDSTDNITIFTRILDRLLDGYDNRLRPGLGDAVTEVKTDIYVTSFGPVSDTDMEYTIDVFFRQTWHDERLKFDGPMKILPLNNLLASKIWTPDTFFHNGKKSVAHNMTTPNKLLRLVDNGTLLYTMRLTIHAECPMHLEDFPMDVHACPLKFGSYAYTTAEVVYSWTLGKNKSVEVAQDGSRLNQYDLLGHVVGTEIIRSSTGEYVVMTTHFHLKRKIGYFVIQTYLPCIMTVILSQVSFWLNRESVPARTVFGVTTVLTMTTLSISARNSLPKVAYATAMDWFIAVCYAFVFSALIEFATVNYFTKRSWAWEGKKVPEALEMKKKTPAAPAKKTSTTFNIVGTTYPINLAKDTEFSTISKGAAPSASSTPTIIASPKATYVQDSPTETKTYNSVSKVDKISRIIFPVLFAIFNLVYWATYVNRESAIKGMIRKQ

[4] = target: T4, GABA-A receptor; alpha-1/beta-2/gamma-2 (Homo sapiens, UniProt P14867+P18507+P47870); assay: Displacement of [3H]flunitrazepam from human recombinant alpha1beta2gamma2 GABAA receptor expressed in HEK cell membrane by competitive radioligand binding assay; format: cell membranes
T4 sequence (P14867 whole entry): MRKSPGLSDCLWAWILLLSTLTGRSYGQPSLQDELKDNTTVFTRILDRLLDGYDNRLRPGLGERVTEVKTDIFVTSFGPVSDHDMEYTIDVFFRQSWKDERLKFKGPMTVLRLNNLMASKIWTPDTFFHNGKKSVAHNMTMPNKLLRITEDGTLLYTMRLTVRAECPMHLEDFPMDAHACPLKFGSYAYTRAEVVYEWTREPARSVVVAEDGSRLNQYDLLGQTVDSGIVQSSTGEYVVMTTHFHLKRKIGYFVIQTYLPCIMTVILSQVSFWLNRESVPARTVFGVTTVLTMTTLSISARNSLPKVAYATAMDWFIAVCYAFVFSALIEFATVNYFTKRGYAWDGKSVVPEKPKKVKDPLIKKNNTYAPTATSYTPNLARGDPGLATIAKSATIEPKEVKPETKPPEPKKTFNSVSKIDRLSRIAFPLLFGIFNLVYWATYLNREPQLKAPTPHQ
T4 sequence (P47870 whole entry): T1 sequence (P47870 whole entry)
T4 sequence (P18507 whole entry): T1 sequence (P18507 whole entry)

Homo sapiens = species: Homo sapiens; assay: Selectivity ratio of Ki for human recombinant alpha1beta2gamma2 GABAA receptor expressed in HEK cell membrane to Ki for human recombinant alpha5beta2gamma2 GABAA receptor expressed in HEK cell membrane; format: cell-based

Molecule `Cc1nnc2n1-c1ccc(Br)cc1C(c1ccccn1)=NC2` has a Ki [1] of 6.1 nM, a Ki [2] of 7.7 nM and a Ki [3] of 5.1 nM. For the same molecule, the Ki [4] was 7.3 nM.
Work on `CN1C(=O)CN=C(c2ccccc2)c2cc(Br)ccc21` yielded a Ki [1] of 9.3 nM, a Ki [2] of 7.7 nM and a Ki [3] of 31 nM. It also gave a Ki [4] of 9.4 nM.
`Cc1nnc2n1-c1ccc(Br)cc1C(c1ccccc1Cl)=NC2` was tested, and the Ki [1] was 1 nM, the Ki [2] was 0.4 nM and the Ki [3] was 0.6 nM. It also gave a Ki [4] of 0.5 nM.
With `Cc1nnc2n1-c1ccc(Cl)cc1C(c1ccccc1)=NC2` [ALPRAZOLAM] the Ki [1] was 0.6 nM, the Ki [2] was 1.5 nM and the Ki [3] was 1.4 nM. It also gave a Ki [4] of 0.8 nM.
Molecule `C#Cc1ccc2c(c1)C(c1ccccc1)=N[C@@H](C)c1nnc(C)n1-2` has a Ki [1] of 50.1 nM, a Ki [2] of 8.1 nM and a Ratio Ki (Homo sapiens) of 13. The Ki [3] was 20.9 nM and the Ki [4] was 107 nM.
In the case of `O=C1CN=C(c2ccccc2Cl)c2cc(Br)ccc2N1` [PHENAZEPAM], the Ki [1] is reported as 0.06 nM, the Ki [2] is reported as 0.68 nM and the Ki [3] is reported as 0.12 nM. For the same molecule, the Ki [4] was 0.05 nM.
Molecule `C#Cc1ccc2c(c1)C(c1ccccc1F)=NCc1nnc(C)n1-2` has a Ki [1] of 2.1 nM, a Ki [2] of 0.6 nM and a Ki [4] of 6.3 nM.
For `Cc1nnc2n1-c1ccc(Br)cc1C(c1ccccc1)=NC2`, the Ki [1] was 0.7 nM, the Ki [2] was 0.6 nM and the Ki [4] was 2.8 nM.
`C#Cc1ccc2c(c1)C(c1ccccc1Cl)=NCc1nnc(C)n1-2` was tested, and the Ki [1] was 0.6 nM, the Ki [2] was 4.4 nM and the Ki [3] was 1.9 nM. The Ki [4] was 3.3 nM.
For `C#Cc1ccc2c(c1)C(c1ccccc1F)=NCC(=O)N2C`, the Ki [1] was 1.2 nM, the Ki [2] was 0.8 nM and the Ki [3] was 3.4 nM. For the same molecule, the Ki [4] was 3.9 nM.
For `C#Cc1ccc2c(c1)C(c1ccccc1)=NCc1nnc(C)n1-2`, the Ki [1] was 25.8 nM, the Ki [2] was 5.3 nM and the Ratio Ki (Homo sapiens) was 6. It also gave a Ki [4] of 36.4 nM.
In the case of `C#Cc1ccc2c(c1)C(c1ccccn1)=NCc1nnc(C)n1-2`, the Ki [1] is reported as 81.3 nM, the Ki [2] is reported as 45.6 nM and the Ki [3] is reported as 104 nM. The Ki [4] was 144 nM.
`O=C1CN=C(c2ccccc2)c2ccccc2N1` [RO-052921] showed a Ki [1] of 233 nM, a Ki [2] of 140 nM and a Ratio Ki (Homo sapiens) of 2. It also gave a Ki [3] of 350 nM and a Ki [4] of 288 nM.
In the case of `CN1C(=O)CN=C(c2ccccc2)c2ccccc21`, the Ki [1] is reported as 138 nM, the Ki [2] is reported as 98 nM and the Ki [3] is reported as 318 nM. The Ki [4] was 81 nM.
`O=C1CN=C(c2ccccc2F)c2cc(Br)ccc2N1` showed a Ki [1] of 0.15 nM, a Ki [2] of 0.26 nM and a Ki [3] of 0.28 nM. It also gave a Ki [4] of 0.26 nM.
With `C[C@H]1N=C(c2ccccc2)c2cc(Br)ccc2NC1=O` the Ki [1] was over 3000 nM, the Ki [2] was over 3000 nM and the Ki [3] was over 3000 nM. It also gave a Ki [4] of over 3000 nM.
With `C[C@@H]1N=C(c2ccccc2)c2cc(Br)ccc2NC1=O` the Ki [1] was 11 nM, the Ki [2] was 1.89 nM and the Ratio Ki (Homo sapiens) was 7. It also gave a Ki [3] of 19.1 nM and a Ki [4] of 14.4 nM.
Work on `C#Cc1ccc2c(c1)C(c1ccccc1Cl)=NCC(=O)N2C` yielded a Ki [1] of 0.99 nM, a Ki [2] of 1.96 nM and a Ki [4] of 1.6 nM.
For `C#Cc1ccc2c(c1)C(c1ccccc1)=NCC(=O)N2C`, the Ki [1] was 42.1 nM, the Ki [2] was 6.8 nM and the Ratio Ki (Homo sapiens) was 11. For the same molecule, the Ki [3] was 47.4 nM and the Ki [4] was 76.3 nM.
